# Assay results taken from US5306808A, “Peptide derivatives having vasodilating activity” (Takeda Chemical Industries, Ltd., priority 1991, dated 1994).
# Where a SMILES comes first, the peptide text is derived from it. Bridges are numbered along the chain shown (N, C = ends).
# Experiments:
# endothelin receptor = experiment: Assay of affinity for receptor (I125-ET-1 binding to porcine myocardial membrane fraction); settings: ET-1 = 100
# Procedure: A membrane fraction prepared from the porcine heart was diluted to 0.15 mg/ml by using a buffer solution [PBS (pH 7.4) containing 0.5 mM CaCl2, 1.0 mM MgCl2, 0.02% NaN3, 0.1% BSA (fraction V, Sigma), 0.1 mM PMSF and 0.1 μg/ml pepstatin (binding buffer)] for assay, and 100 μl of the resulting suspension of the membrane fraction was poured into each assay tube to use for assay. To this suspension of the membrane fraction were added 2 μl of an endothelin-1 solution labeled with 5 μM radioactive iodine. Further, 3 μl of a test peptide solution was added thereto, followed by maintenance at a temperature of 25° C. for 1 hour. Then, the resulting suspension was diluted with 900 μl of the buffer solution for assay cooled with ice, and thereafter separated into a supernatant and a precipitate by centrifugation at 12,000×g for 10 minutes. Cell membranes and an endothelin receptor embedded therein were contained in the precipitate, and radioactive iodine-labeled endothelin combined with the receptor was also recovered in the precipitate. Accordingly, the amount of radioactive iodine-labeled endothelin combined with the endothelin receptor was determined by measuring the amount of radioactive iodine contained in the precipitate with a gamma-ray counter. Compounds in which the affinity for the endothelin receptor is high and the maximum constriction is not high are antagonists. Contrary to this, compounds in which the affinity for the endothelin receptor is high and the maximum constriction is high are agonists.
# porcine coronary artery = assay type: cell-based; settings: for Constrictor activity (Relative potency): ET-1 = 100; for Maximum Constriction (% 60 mM KCl): normalized to constriction response to 60 mM KCl
# Procedure: Each of helical strips 2 mm×15 mm prepared from the coronary right ramus circumflexus from which the adventitial connective tissues and the endothelial cells were removed was set to each of 4 ml organ baths. Its tension was detected by a force displacement transducer UL-10GR (Minebea), and recorded by a polygraph (NEC Sanei). The organ baths were maintained at 37° C., and filled with a Krebs-Henseleit solution (composition:118 mM NaCl, 4.7 mM KCl, 2.5 mM CaCl2, 1.2 mM KH2 PO4, 25.0 mM NaHCO3, 1.2 mM MgSO4, 10.0 mM glucose) gassed with 95% O2 and 5% CO2.
# (§1) A tension of 1.25 to 1.5 g was applied to each of the strips, followed by equilibration for 1.5 hours. 60 mM KCl was repeatedly applied thereto at intervals of 30 minutes until the constriction response became constant. After additional equilibration for 1.5 hours, a sample for assay was given. The constriction of the strips was normalized by the constriction response of the individual strips to 60 mM KCl and statistically processed.
# (2) As to the antagonist property or the agonist property of the peptide derivatives of present invention to endothelin, the affinity for an endothelin receptor and the constrictor activity to porcine coronary smooth muscles (according to the method described in (1) described above) were assayed. The affinity for the receptor was assayed by the following method.
# [1] = system: porcine coronary smooth muscles (constriction due to endothelin-1); experiment: Assay of constriction suppressing activity to porcine coronary smooth muscles; assay type: cell-based; settings: Sample: constriction due to 10^-9 M ET-1 in the presence of 10^-5 sample; Control: constriction due to 10^-9 M ET-1; formula shown only as drawing 9
# Procedure: as §1, with “Its tension was detected by a force displacement transducer UL-10GR (Minebea), and recorded by a polygraph (NEC Sanei). […] A tension” for “A tension”
Receptor binding activity (Relative potency) (endothelin receptor),SMILES,Constrictor activity (Relative potency) (porcine coronary artery),Maximum Constriction (% 60 mM KCl) (porcine coronary artery),Suppressing activity to ET-1 [1]
0.45,"CC[C@H](C)[C@H](NC(=O)[C@H](CC(=O)O)NC(=O)[C@H](CC(C)C)NC(=O)[C@H](Cc1c[nH]cn1)NC(=O)[C@@H]1CSSC[C@H](N)C(=O)N[C@@H](CO)C(=O)N[C@@H](Cc2ccccc2)C(=O)N[C@@H](CO)C(=O)N[C@@H](CO)C(=O)N[C@@H](CC(C)C)C(=O)N[C@@H](CCSC)C(=O)N[C@@H](CC(=O)O)C(=O)N[C@@H](CCCCN)C(=O)N[C@@H](CCC(=O)O)C(=O)N[C@@H](Cc2ccccc2)C(=O)N[C@@H](C(C)C)C(=O)N[C@@H](Cc2ccc(O)cc2)C(=O)N[C@@H](Cc2ccccc2)C(=O)N1)C(=O)N[C@H](C(=O)N[C@@H](Cc1c[nH]c2ccccc12)C(=O)O)[C@@H](C)CC [Example 1, [Phe^3,11]-ET-1] (H-CSFSSLMDKEFVYFCHLDIIW-OH; disulfide 1-15)",< 0.3,9,77
0.1,"CC[C@H](C)[C@H](NC(=O)[C@H](CC(=O)O)NC(=O)[C@H](CC(C)C)NC(=O)[C@H](Cc1c[nH]cn1)NC(=O)[C@@H]1CSSC[C@H](N)C(=O)N[C@@H](CO)C(=O)N[C@@H](C)C(=O)N[C@@H](CO)C(=O)N[C@@H](CO)C(=O)N[C@@H](CC(C)C)C(=O)N[C@@H](CCSC)C(=O)N[C@@H](CC(=O)O)C(=O)N[C@@H](CCCCN)C(=O)N[C@@H](CCC(=O)O)C(=O)N[C@@H](Cc2ccccc2)C(=O)N[C@@H](C(C)C)C(=O)N[C@@H](Cc2ccc(O)cc2)C(=O)N[C@@H](Cc2ccccc2)C(=O)N1)C(=O)N[C@H](C(=O)N[C@@H](Cc1c[nH]c2ccccc12)C(=O)O)[C@@H](C)CC [Example 3, [Ala^3, Phe^11]-ET-1] (H-CSASSLMDKEFVYFCHLDIIW-OH; disulfide 1-15)",< 0.1,10,56
0.5,"CC[C@H](C)[C@H](NC(=O)[C@H](CC(=O)O)NC(=O)[C@H](CC(C)C)NC(=O)[C@H](Cc1c[nH]cn1)NC(=O)[C@@H]1CSSC[C@H](N)C(=O)N[C@@H](CO)C(=O)N[C@@H](Cc2ccccc2)C(=O)N[C@@H](CO)C(=O)N[C@@H](CO)C(=O)N[C@@H](CC(C)C)C(=O)N[C@@H](CCSC)C(=O)N[C@@H](CC(=O)O)C(=O)N[C@@H](CCCCN)C(=O)N[C@@H](CCC(=O)O)C(=O)N[C@@H](C)C(=O)N[C@@H](C(C)C)C(=O)N[C@@H](Cc2ccc(O)cc2)C(=O)N[C@@H](Cc2ccccc2)C(=O)N1)C(=O)N[C@H](C(=O)N[C@@H](Cc1c[nH]c2ccccc12)C(=O)O)[C@@H](C)CC [Example 2, [Phe^3, Ala^11]-ET-1] (H-CSFSSLMDKEAVYFCHLDIIW-OH; disulfide 1-15)",< 0.1,10,87
0.35,"CC[C@H](C)[C@H](NC(=O)[C@H](CC(=O)O)NC(=O)[C@H](CC(C)C)NC(=O)[C@H](Cc1c[nH]cn1)NC(=O)[C@@H]1CSSC[C@H](N)C(=O)N[C@@H](CO)C(=O)N[C@@H](CC(C)C)C(=O)N[C@@H](CO)C(=O)N[C@@H](CO)C(=O)N[C@@H](CC(C)C)C(=O)N[C@@H](CCSC)C(=O)N[C@@H](CC(=O)O)C(=O)N[C@@H](CCCCN)C(=O)N[C@@H](CCC(=O)O)C(=O)N[C@@H](C)C(=O)N[C@@H](C(C)C)C(=O)N[C@@H](Cc2ccc(O)cc2)C(=O)N[C@@H](Cc2ccccc2)C(=O)N1)C(=O)N[C@H](C(=O)N[C@@H](Cc1c[nH]c2ccccc12)C(=O)O)[C@@H](C)CC [Example 52, [Leu^3, Ala^11]-ET-1] (H-CSLSSLMDKEAVYFCHLDIIW-OH; disulfide 1-15)",< 0.1,6,
1.27,"CC[C@H](C)[C@H](NC(=O)[C@H](Cc1ccccc1)NC(=O)[C@H](CC(C)C)NC(=O)[C@H](Cc1c[nH]cn1)NC(=O)[C@@H]1CSSC[C@H](N)C(=O)N[C@@H](CO)C(=O)N[C@@H](C)C(=O)N[C@@H](CO)C(=O)N[C@@H](CO)C(=O)N[C@@H](CC(C)C)C(=O)N[C@@H](CCSC)C(=O)N[C@@H](CC(=O)O)C(=O)N[C@@H](CCCCN)C(=O)N[C@@H](CCC(=O)O)C(=O)N[C@@H](C)C(=O)N[C@@H](C(C)C)C(=O)N[C@@H](Cc2ccc(O)cc2)C(=O)N[C@@H](Cc2ccccc2)C(=O)N1)C(=O)N[C@H](C(=O)N[C@@H](Cc1c[nH]c2ccccc12)C(=O)O)[C@@H](C)CC [Example 23, [Ala^3,11, Phe^18]-ET-1] (H-CSASSLMDKEAVYFCHLFIIW-OH; disulfide 1-15)",< 0.1,8,
2.4,"CC[C@H](C)[C@H](NC(=O)[C@H](CC(C)C)NC(=O)[C@H](CC(C)C)NC(=O)[C@H](Cc1c[nH]cn1)NC(=O)[C@@H]1CSSC[C@H](N)C(=O)N[C@@H](CO)C(=O)N[C@H]2CSSC[C@H](NC(=O)[C@H](CCC(=O)O)NC(=O)[C@H](CCCCN)NC(=O)[C@H](CC(=O)O)NC(=O)[C@H](CCSC)NC(=O)[C@H](CC(C)C)NC(=O)[C@H](CO)NC(=O)[C@H](CO)NC2=O)C(=O)N[C@@H](C(C)C)C(=O)N[C@@H](Cc2ccc(O)cc2)C(=O)N[C@@H](Cc2ccccc2)C(=O)N1)C(=O)N[C@H](C(=O)N[C@@H](Cc1c[nH]c2ccccc12)C(=O)O)[C@@H](C)CC [Example 26, [Leu^18]-ET-1] (H-CSCSSLMDKECVYFCHLLIIW-OH; disulfide 1-15, 3-11)",< 0.1,0,
